In the NIST ThermoML archive (doi:10.1021/je201297j):
± gives the expanded uncertainty stated by the source.

Conditions: Liquid, Vibrating wire viscometry

COC [dimethyl ether]
Conditions | viscosity [mPa·s]
243.15 K | 0.2217 ± 0.0062
248.16 K | 0.2097 ± 0.006
253.15 K | 0.1988 ± 0.0058
258.14 K | 0.1889 ± 0.0057
263.15 K | 0.1796 ± 0.0055
268.14 K | 0.1709 ± 0.0054
273.14 K | 0.1628 ± 0.0052
278.13 K | 0.1552 ± 0.0051
283.14 K | 0.1479 ± 0.005
288.14 K | 0.1414 ± 0.0049
293.14 K | 0.1351 ± 0.0048
298.14 K | 0.129 ± 0.0047
303.14 K | 0.124 ± 0.0047
308.14 K | 0.1181 ± 0.0046
313.14 K | 0.1129 ± 0.0045
318.12 K | 0.108 ± 0.0045
323.12 K | 0.1031 ± 0.0044
328.12 K | 0.09861 ± 0.0044
333.13 K | 0.09419 ± 0.0043
338.13 K | 0.08983 ± 0.0043
343.13 K | 0.08575 ± 0.0042
348.13 K | 0.08166 ± 0.0042
353.12 K | 0.07777 ± 0.0042
358.13 K | 0.07388 ± 0.0042
363.13 K | 0.07014 ± 0.0041
368.13 K | 0.06636 ± 0.0041
373.13 K | 0.06256 ± 0.0041

viscosity [mPa·s]
Conditions | 5000 kPa | 10000 kPa | 15000 kPa | 20000 kPa | 25000 kPa | 30000 kPa
253.15 K | 0.2044 ± 0.0059 | 0.2125 ± 0.006 | 0.2199 ± 0.0062 | 0.2314 ± 0.0064 | 0.2421 ± 0.0066 | 0.2541 ± 0.0068
263.15 K | 0.1836 ± 0.0056 | 0.1911 ± 0.0057 | 0.1989 ± 0.0058 | 0.2068 ± 0.006 | 0.2156 ± 0.0061 | 0.2252 ± 0.0063
273.14 K | 0.1669 ± 0.0053 | 0.1742 ± 0.0054 | 0.1816 ± 0.0056 | 0.189 ± 0.0057 | 0.196 ± 0.0058 | 0.2035 ± 0.0059
283.14 K | 0.1521 ± 0.0051 | 0.159 ± 0.0052 | 0.1657 ± 0.0053 | 0.1724 ± 0.0054 | 0.1791 ± 0.0055 | 0.1857 ± 0.0056
293.14 K | 0.1395 ± 0.0049 | 0.1455 ± 0.005 | 0.1527 ± 0.0051 | 0.1586 ± 0.0052 | 0.1652 ± 0.0053 | 0.1709 ± 0.0054
303.14 K | 0.1276 ± 0.0047 | 0.134 ± 0.0048 | 0.1401 ± 0.0049 | 0.1464 ± 0.005 | 0.1521 ± 0.0051 | 0.1584 ± 0.0052
313.14 K | 0.1165 ± 0.0046 | 0.1235 ± 0.0047 | 0.1294 ± 0.0048 | 0.1355 ± 0.0049 | 0.1415 ± 0.0049 | 0.1473 ± 0.005
323.12 K | 0.107 ± 0.0045 | 0.1139 ± 0.0046 | 0.1199 ± 0.0046 | 0.1262 ± 0.0047 | 0.1316 ± 0.0048 | 0.137 ± 0.0049
333.12 K | 0.09797 ± 0.0044 | 0.1049 ± 0.0044 | 0.1111 ± 0.0045 | 0.117 ± 0.0046 | 0.1231 ± 0.0047 | 0.1284 ± 0.0047
343.13 K | 0.08951 ± 0.0043 | 0.09664 ± 0.0043 | 0.1036 ± 0.0044 | 0.1096 ± 0.0045 | 0.1151 ± 0.0046 | 0.1204 ± 0.0046
353.12 K | 0.08119 ± 0.0042 | 0.08899 ± 0.0043 | 0.0959 ± 0.0043 | 0.1017 ± 0.0044 | 0.1075 ± 0.0045 | 0.1127 ± 0.0045
363.13 K | – | 0.08181 ± 0.0042 | 0.08877 ± 0.0043 | 0.09499 ± 0.0043 | 0.101 ± 0.0044 | 0.1066 ± 0.0045
373.13 K | 0.06522 ± 0.0042 | 0.07506 ± 0.0042 | 0.08237 ± 0.0042 | 0.08883 ± 0.0043 | 0.09475 ± 0.0043 | 0.09991 ± 0.0044
